Tests used:
[1] = test system: C3H/H male mice; assay: acetic acid-writhing method, intravenous, time course in comparison with phenylbutazone; type: in vivo, mouse; details: for Writhing frequency / writhing inhibition: Group B, i.v. 1 mg/mouse
Text: The analgesic effects of the LPSs of the present invention have been confirmed by an experiment using animals according to the acetic acid-writhing method described on page 415 of "Inflammation and anti-inflammatory therapy" issued in 1982 by Ishiyaku Shuppan Co. in Japan, one of the established methods for the determination of the effects of non-narcotic analgesics. The experiment included comparison with the prior art phenylbutazone which is often used to eliminate inflammatory pain.
2) The following preparations were given to six-membered groups of 8 week old C3H/H male mice (body weight: 20-25 g).
Group A: an intravenous solution prepared by dissolving 1 μg by weight/mouse of LPS (wheat LPS prepared in Reference Example 1) in 0.2 ml of physiological saline.
Group B: an intravenous solution prepared by dissolving 1 mg/mouse of the prior art analgesic phenylbutazone in 0.2 ml of 1% aqueous CMC solution.
Group C: 0.2 ml of physiological saline.
0.5 ml of 1% acetic acid was administered intraperitoneally 0.5, 1.5, 3, 8 or 18 hours after the administration of the preparations, and the writhing frequency of the respective mice was counted. The results are shown in Table 9 as an average of six mice in the respective groups. In the table, the writhing inhibition (%) was calculated as follows: [formula]
In the above equation, the writhing frequency in the group C is that obtained in the case where acetic acid was given 30 minutes after the administration of physiological saline, and the counting was made for 30 minutes. The data of the group A was 39, whereas that of the group B was 35.

[2] = test system: macrophage peritoneal cells of mice; assay: ability of LPS to activate in vitro TNF productivity of macrophage (TNF activity by cytotoxicity to L929 cells); type: cell-based, mouse
Experimental: In order to determine the ability of LPS to activate the in vitro TNF productivity of macrophage, a recombinant mouse IFN-γ is added to peritoneal macrophage cells of mouse as the primer followed by addition of the LPS as the trigger thereto, and then the TNF activity is determined.
The TNF activity is determined, as follows, on the basis of the cytotoxicity to L929 cells (Proci. Natl. Acad. Sci. U.S.A., 72, pp. 3666-3670, […]). L-929 cells are cultured in Eagles' Minimum Essential Medium (hereunder referred to only as MEM) with 5% fetal calf serum (hereunder referred to only as FCS) added thereto until 100 μl of the medium contains 8×10^4 cells, and then the cells are grown in a flat-bottomed plate having 96 wells.
The growth conditions are 37° C. in the presence of 5% CO2, and under a humidity of 100% for 2 hours, and the procedures may be the same as for the conventional cell culture. Then actinomycin D is added to the medium to a final concentration of 1 μg/ml, and the volume of the culture solution is adjusted to 150 μl. Immediately thereafter 50 μl of the sample diluted appropriately with MEM medium is added to the culture solution. Here, ED50 may be determined by adjusting the dilution appropriately. The L-929 cells having a final volume of 200 μl are cultured for an additional 18 hours under the same conditions as described above.
In order to determine the cell necrosis activity, first the whole medium is removed followed by addition of a 1% methyl alcoholic solution containing 0.1% crystal violet for fixation staining. Crystal violet stains all the eukaryotic cells, but the dead cells are removed off from the bottom of the flask only by washing after the staining; so the cell necrosis activity may be determined directly. The staining degree is measured on the basis of adsorption at OD590 nm, and is compared with that of a control to determine the cell necrosis activity. This activity is defined as follows.
The dilution of the sample which allows 50% of the L-929 cells to survive (N) is determined. Rabbit TNS is used as the control, and its activity n (units/ml) is determined using 2.4×10^6 units/mg/ml of TNF-α. The dilution which provides ED50 of rabbit TNS is determined.
The activity of the sample (units/ml) is calculated by the equation N/C×n.
Two hundred μl (2×10^5 cells)/well of macrophage peritoneal cells of mice (each group comprised three mice of 9 weeks old and having an average weight of 29 g) were placed in a flat-bottomed plate having 96 wells, and 10 μl of recombinant IFN-γ (100 units/ml) as a primer was placed in the respective wells. Separately, extracts prepared by extraction of various LPS sources with hot water at 65° C. for 5 hrs. were diluted to various degrees, and then were administered as triggers to the cells three hours after the administration of the primer in a proportion of 10 μl/well. After two hour culture, the culture solutions were subjected to centrifugation at 3,000 G for 20 min. A pipette was used to collect 130 μl of the supernatant from the respective wells, and the TNF activity was determined on the basis of the toxicity to L929 cells. The limulus test-positive LPS content was determined using Toxicolor System® commercially available from Sei-Kagaku Kogyo Co. in Japan.
The values were plotted to prepare a graph wherein the quantity of the TNF produced (units/ml of culture solution) was plotted along the axis of ordinate, whereas the corresponding limulus test-positive LPS content (ng/ml of culture solution) was plotted along the axis of abscissa (on a logarithmic scale), and a sigmoid curve was prepared on the basis of the plotted points. The macrophage activation ability was estimated to be 0% in the case where it corresponded to the quantity of TNF produced by macrophage with no trigger added thereto, and 100% was assigned to the macrophage activation ability which provided the maximal constant of TNF. […]

[3] = LPS 2 ng/ml of culture solution
[4] = LPS 24 ng/ml of culture solution
[5] = LPS 240 ng/ml of culture solution
[6] = LPS 2400 ng/ml of culture solution

Compound | significance of analgesic effects (double-sided t test) ([1]; 3 hours after administration) | Writhing frequency ([1]; time lapsed 0.5 h) | writhing inhibition ([1]; time lapsed 0.5 h) | Writhing frequency ([1]; time lapsed 1.5 h) | writhing inhibition ([1]; time lapsed 1.5 h) | Writhing frequency ([1]; time lapsed 3 h) | writhing inhibition ([1]; time lapsed 3 h) | TNF produced [2, 3] | macrophage activation ability [2, 3] | TNF produced [2, 4] | macrophage activation ability [2, 4] | TNF produced [2, 5] | macrophage activation ability [2, 5] | TNF produced [2, 6] | macrophage activation ability [2, 6]
CCCCC1C(=O)N(c2ccccc2)N(c2ccccc2)C1=O [phenylbutazone] | no significant analgesic effects | 18 | 49% | 7 | 80% | 25 | 29% | – | – | – | – | – | – | – | –
Lipid A | – | – | – | – | – | – | – | 4.7 units/ml of culture solution | 37% | 9.4 units/ml of culture solution | 80% | 11.1 units/ml of culture solution | 96% | 11.5 units/ml of culture solution | 100%
